Assay results from US10791740B2, “Enhancement of antibiotic efficacy” (priority 2014, dated 2020).
Converted amounts (≈) assume the structure as drawn. Read-outs that look alike come from different tables or passages of the source.

Key:
[1] = test system: tetracycline resistant E. coli; assay type: cell-based, Escherichia coli; settings: for MIC: single agent, Table 5; for MIC (μM) of amphiphile alone: Tables 6 and 7
Excerpt: (§1) Certain aspects are drawn to a method for increasing or enhancing the antimicrobial activity of an antimicrobial agent. As used herein, the “antimicrobial activity” of an antimicrobial agent is defined as the property of a substance to inhibit the growth and reproduction of a microbial organism or to kill it. Common terms generally applied to bacteria are bacteriostatic (stops growth) and bactericidal (kills bacteria). Depending on the concentrations applied, microbial growth can be slowed or stopped in comparison to concurrent experiments conducted in the absence of an antimicrobial agent. Depending on the concentrations applied, additional microbe death can occur in comparison to concurrent experiments conducted in the absence of an antimicrobial agent. […] The MIC is the lowest concentration of any agent having antimicrobial activity that inhibits the growth of a microorganism as judged by visual inspection. MIC can be determined by inoculating media with the organism and adding the antimicrobial agent diluted successively in half.
(§2) Among the organisms studied are several strains of the bacterium E. coli.
N,N′-Dibenzyl-4,13-diaza-18-crown-6 is referred to in the table as dibenzyldiaza-18-crown-6.
(§3) Minimal Inhibitory Concentration (MIC) Procedure. […] Prepare initial concentration of all the compounds required. • 5. […] Vortex each test tube for 2-3 seconds. • 11.

E. coli [2] = settings: Journal of the American Chemical Society 2002, 124, 9022-3, cited from earlier work
E. coli [3] = assay: MIC determination, E. coli (Table 1); assay type: cell-based, Escherichia coli; settings: single agent
Excerpt: as §1, §2, §3

DH5α E. coli [4] = assay: Combination of lariat ether and antibiotic against DH5α E. coli; settings: 0.4 vol-% DMSO
K-12 E. coli [5] = assay: Combination of amphiphile and antibiotic against K-12 E. coli
K-12 E. coli [6] = assay: MIC of single agents against K-12 E. coli
[7] = test system: tetracycline resistant E. coli
HEK-293 cells = assay: MTT assay of toxicity to HEK-293 cells
Procedure: The toxicity of C6. C8, C10. C11 and C14 lariat ethers to HEK-293 cells was determined by using an MTT assay. […] The abscissa is a logarithmic scale for the concentrations ranging from 1 μM to 1000 μM (1 mM) used in the experiment. The ordinate represents percent survival of HEK-293 cells.
Growth medium containing DMEM with high glucose (ATCC). 10% fetal bovine serum (FBS: Sigma-Aldrich) and 10 μg/mL of blasticidin (Thermo-Fischer) was prepared. HEK 293 cells were thawed out from cryo-preserved samples in 10 mL growth media, centrifuged at 500 rpm for 10 minutes to remove preservative. The cells were then resuspended in fresh growth medium and cultured using a T-75 flask (Thermo-Fischer) at 37° C. and 5% CO2. Cells were monitored for confluence and growth medium was replaced every 48 h, until cells were placed onto a 96-well plate for toxicity studies.
After reaching 80-90% confluence, cells were trypsinized and suspended in media containing DMEM and 10% FBS (no antibiotics). The cells were counted on a hemacytometer and plated at a density of 20,000 cells per well in a 96-well plate and grown for 24 hours to reach 60-70% confluence. DMSO stocks of C6, C8, C10, C11 and C14 diaza-18-crown-6 lariat ethers were prepared at […] and diluted 1:10 to get working concentrations of 20 mM, 2 mM, and 0.2 mM. Each stock was further diluted […] into DMEM supplemented with 10% FBS to get final concentrations of 1 mM, 0.1 mM, 0.01 mM (10 μM) and 0.001 mM (1 μM). The original media was then removed from the cells and replaced with 200 μL media containing the desired concentration of compound. Three wells were used for each concentration providing experimental triplicates. […] The absorbance was measured at 570 nm and nonspecific absorbance was corrected at 650 nm, using SpectraMax340 micro plate reader.
The experiment was performed in triplicate and the average of percent survival of three experiments was determined. […] The lethal dose 50 (LD50) for each compound was calculated by using the equation for a logarithmic regression curve.

DH5α E. coli [8] = assay: MIC of single agents against DH5α E. coli; assay type: cell-based, Escherichia coli; settings: for MIC to DH5α E. coli: single agent, values of the running text
Excerpt: as §1, §2, §3

S. cerevisiae = assay: MIC determination, S. cerevisiae (Table 1); assay type: cell-based, Saccharomyces cerevisiae; settings: single agent
Excerpt: (§4) Certain aspects are drawn to a method for increasing or enhancing the antimicrobial activity of an antimicrobial agent. As used herein, the “antimicrobial activity” of an antimicrobial agent is defined as the property of a substance to inhibit the growth and reproduction of a microbial organism or to kill it. Common terms generally applied to bacteria are bacteriostatic (stops growth) and bactericidal (kills bacteria). Depending on the concentrations applied, microbial growth can be slowed or stopped in comparison to concurrent experiments conducted in the absence of an antimicrobial agent. Depending on the concentrations applied, additional microbe death can occur in comparison to concurrent experiments conducted in the absence of an antimicrobial agent. The results of minimum inhibitory concentration (MIC) evaluations and growth curves are presented herein and the conditions are specified. The MIC is the lowest concentration of any agent having antimicrobial activity that inhibits the growth of a microorganism as judged by visual inspection. MIC can be determined by inoculating media with the organism and adding the antimicrobial agent diluted successively in half. […] Reference herein to increasing or enhancing activity, efficacy, potency, and the like are used interchangeably to mean that when the synthetic amphiphile is present, the ability of the antimicrobial agent to inhibit the growth of or to kill an organism will be manifested at a concentration lower than would be required to achieve the same results in the absence of said synthetic amphiphile.
(§5) Among the organisms studied are several strains of the bacterium E. coli. […] Experiments were conducted to determine the MIC values for the synthetic amphiphiles known as lariat ethers according to the procedures described in Antimicrobial M07-A9: Methods for Dilution Antimicrobial Susceptibility Tests for Bacteria that Grow Aerobically; Clinical and Laboratory Standards Institute, 2012; Vol. 32, 67 pp. MIC values so determined for several lariat ethers and for several antibiotics are shown in Table 1.

B. stubtilis = assay: MIC determination, B. subtilis (Table 1); assay type: cell-based, Bacillus subtilis; settings: single agent
Excerpt: as §4, §5

DH5α E. coli [9] = assay: Inhibitory concentration (IC50) to DH5α E. coli cells (FIG. 4); assay type: cell-based, Escherichia coli
Excerpt: Two commonly used abbreviations are LD50 and IC50. The former is the concentration of an agent that comprises a lethal dose to 50% of the organism under study. The latter is the concentration of agent that inhibits growth of 50% of the organism under study. […] The abscissa represents the number of (CH2) groups in spacer chains. The ordinate is logarithmic and reflects the concentrations (in μM) of the various lariat ethers used.

Molecule: c1ccc(CN2CCOCCOCCN(CCCCCCCCCCCCN3CCOCCOCCN(CCCCCCCCCCCCN4CCOCCOCCN(Cc5ccccc5)CCOCCOCC4)CCOCCOCC3)CCOCCOCC2)cc1 [C12 hydraphile]
- MIC [1]: 5 ± 0.5 µM (≈ 6.5 µg/mL)
- MIC (μM) of amphiphile alone ([1]; tetracycline resistant E. coli): 5 µM
- toxicity to E. coli (E. coli [2]; listed as C12 benzyl hydraphile): killed E. coli
- toxicity to E. coli (E. coli [2]; listed as benzyl C12 hydraphile): killed the bacteria

Molecule: c1ccc(CN2CCOCCOCCN(CCCCCCCCCCCCCCN3CCOCCOCCN(CCCCCCCCCCCCCCN4CCOCCOCCN(Cc5ccccc5)CCOCCOCC4)CCOCCOCC3)CCOCCOCC2)cc1 [C14 hydraphile]
- MIC [1]: 2 ± 0.125 µM (≈ 2.71 µg/mL)
- MIC (μM) of amphiphile alone ([1]; tetracycline resistant E. coli): 2 µM

Molecule: CC[C@H]1OC(=O)[C@H](C)[C@@H](O[C@H]2C[C@@](C)(OC)[C@@H](O)[C@H](C)O2)[C@H](C)[C@@H](O[C@@H]2O[C@H](C)C[C@H](N(C)C)[C@H]2O)[C@](C)(O)C[C@@H](C)C(=O)[C@H](C)[C@@H](O)[C@]1(C)O [erythromycin, reference compound]
- MIC (E. coli [3]; Escherichia coli): > 400 µM

Molecule: CO[C@H]1/C=C/O[C@@]2(C)Oc3c(C)c(O)c4c(O)c(c(/C=N/N5CCN(C)CC5)c(O)c4c3C2=O)NC(=O)/C(C)=C\C=C\[C@H](C)[C@H](O)[C@@H](C)[C@@H](O)[C@@H](C)[C@H](OC(C)=O)[C@@H]1C [rifampicin, reference compound]
- Antibiotic Used (μM) in combination (DH5α E. coli [4]; rifampicin with 8 μM n-C11 lariat ether): 15 µM
- Antibiotic Used (μM) in combination (DH5α E. coli [4]; rifampicin with 12 μM n-C11 lariat ether): 6 µM
- Antibiotic Used (μM) in combination (DH5α E. coli [4]; rifampicin with 16 μM n-C11 lariat ether): 6 µM
- Antibiotic Used (μM) in combination (DH5α E. coli [4]; rifampicin with 18 μM n-C11 lariat ether): 3 µM
- Antibiotic Used (μM) in combination (K-12 E. coli [5]; Rifampicin with 6 μM C11 lariat ether): 10 µM
- MIC (μM) of antibiotic alone (K-12 E. coli [6]): 20 µM

Molecule: CN(C)[C@@H]1C(O)=C(C(N)=O)C(=O)[C@@]2(O)C(O)=C3C(=O)c4c(O)cccc4[C@@](C)(O)[C@H]3C[C@@H]12 [tetracycline, reference compound]
- MIC (μM) of antibiotic alone ([1]; tetracycline resistant E. coli): ~900 µM
- Antibiotic Used (μM) in combination (DH5α E. coli [4]; tetracycline with 4 μM n-C11 lariat ether): 3 µM
- Antibiotic Used (μM) in combination (DH5α E. coli [4]; tetracycline with 12 μM n-C11 lariat ether): 1 µM
- Antibiotic Used (μM) in combination (DH5α E. coli [4]; tetracycline with 16 μM n-C11 lariat ether): 0.25 µM
- Antibiotic Used (μM) in combination (DH5α E. coli [4]; tetracycline with 18 μM n-C11 lariat ether): 1.5 µM
- Antibiotic Used (μM) in combination (K-12 E. coli [5]; Tetracycline with 6 μM C11 lariat ether): 2.5 µM
- Antibiotic Used (μM) in combination ([7]; Tetracycline with 8 μM C11 lariat ether): 175 µM
- Antibiotic Used (μM) in combination ([7]; Tetracycline with 12 μM C11 lariat ether): 87 µM
- Antibiotic Used (μM) in combination ([7]; Tetracycline with 16 μM C11 lariat ether): 87 µM
- Antibiotic Used (μM) in combination ([7]; Tetracycline with 18 μM C11 lariat ether): 87 µM
- MIC (μM) of antibiotic alone (K-12 E. coli [6]): 6 µM

Molecule: NC[C@H]1O[C@H](O[C@H]2[C@H](O)[C@@H](O[C@H]3O[C@H](CO)[C@@H](O)[C@H](N)[C@H]3O)[C@H](N)C[C@@H]2N)[C@H](N)C[C@@H]1O [tobramycin, reference compound]
- MIC (E. coli [3]; Escherichia coli): 15 µM (≈ 7.01 µg/mL)

Molecule: N,N′-di-n-decyl-4,13-diaza-18-crown-6 [C10 lariat ether]
- MIC (E. coli [3]): 11 µM
- MIC [1]: 16 µM
- MIC (μM) of amphiphile alone ([1]; tetracycline resistant E. coli): 16 µM
- toxicity to HEK-293, rank among lariat ethers (HEK-293 cells; C6 to C14 lariat ethers compared): highest toxicity
- MIC to DH5α E. coli (DH5α E. coli [8]): 12 µM
- MIC (μM) S. cerevisiae (S. cerevisiae): 2.8 µM
- MIC (μM) of amphiphile alone (K-12 E. coli [6]): 12 µM
- MIC (μM) B. stubtilis (B. stubtilis): 2.8 µM

Molecule: N,N′-di-n-dodecyl-4,13-diaza-18-crown-6 [C12 lariat ether]
- MIC (E. coli [3]): >300 µM
- MIC (μM) of amphiphile alone ([1]; tetracycline resistant E. coli): >512 µM
- toxicity to DH5α E. coli cells (DH5α E. coli [8]; previous studies): did not show toxicity
- MIC (μM) S. cerevisiae (S. cerevisiae): 2.5 µM
- MIC (μM) of amphiphile alone (K-12 E. coli [6]): >512 µM
- MIC (μM) B. stubtilis (B. stubtilis): 2.5 µM

Molecule: N,N′-di-n-octyl-4,13-diaza-18-crown-6 [C8 lariat ether]
- MIC (E. coli [3]): 120 µM
- IC50 (DH5α E. coli [9]; DH5α E. coli, FIG. 4): 150 µM
- MIC [1]: 120 µM
- MIC (μM) of amphiphile alone ([1]; tetracycline resistant E. coli): 120 µM
- LD50 to HEK-293 (HEK-293 cells): 33 µM
- MIC (μM) of lariat ether alone (DH5α E. coli [8]; DH5α E. coli, Tables 2 and 3): >120 µM
- MIC to DH5α E. coli (DH5α E. coli [8]): > 240 µM
- MIC to DH5α E. coli (DH5α E. coli [8]; listed as C8 Lariat): 120 µM
- MIC (μM) S. cerevisiae (S. cerevisiae): 25 µM
- MIC (μM) of amphiphile alone (K-12 E. coli [6]): 300 µM
- MIC (μM) B. stubtilis (B. stubtilis): 105 µM

Molecule: N,N′-di-n-tetradecyl-4,13-diaza-18-crown-6 [C14 lariat ether]
- MIC (E. coli [3]): >300 µM
- activity against E. coli (DH5α E. coli [9]; at 180 μM): inactive
- MIC (μM) S. cerevisiae (S. cerevisiae): >300 µM
- MIC (μM) B. stubtilis (B. stubtilis): >300 µM
